Where two headings read alike, the source gives them in different places.
Tests used:
[1] = cited from earlier work; for τ0 (fluorescence lifetime): dye concentrations of about 10^−7 M; for φb (quantum yield of photobleaching) / μ (mean number of survived excitation cycles): in water at low irradiances; for μ (mean number of survived excitation cycles): μ calculated from φb
avidin = avidin (Gallus gallus, UniProt P02701); test: Homogeneous pH modulation assay in capillary tubes with Texas Red succinimidyl ester conjugated avidin; type: binding; details: for fluorescence intensity versus capillary without ligand: 3 μM ortho-Texas Red succinimidyl ester conjugated avidin, PBS pH 7.0
avidin, sequence (P02701 25-152, species assumed): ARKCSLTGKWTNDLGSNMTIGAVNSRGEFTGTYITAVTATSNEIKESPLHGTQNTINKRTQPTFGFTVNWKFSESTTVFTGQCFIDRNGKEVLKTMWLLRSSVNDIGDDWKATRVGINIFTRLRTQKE
Text: The pH modulation detection assay is amenable monitoring protein-small molecule and protein-protein interactions homogeneously in aqueous solution.
Avidin was labeled with Texas Red® succinimidyl ester as follows: The ortho isomer of Texas Red® succinimidyl ester was separated from the para isomer via thin layer chromatography utilizing silica plates (TLC Silica Gel 60 F254, EMD Chemicals) and 8:92 (methanol:chloroform) solvent. The separated band was removed from the plates with a razor and the ortho-Texas Red® succinimidyl ester was eluted from the silica with the same methanol/chloroform solvent. The dye (21 μg) was dried down with nitrogen in a 2 mL reactive vial containing a magnetic stir bar. To this reaction vial was added 0.5 mL of a 2 mg/mL avidin solution in 1 M sodium bicarbonate. This solution was allowed to stir for two hours at room temperature before being separated in a column containing Bio-Rad BioGel® Fine size purification resin in phosphate buffered saline (PBS, 10 mM potassium phosphate, 150 mM NaCl, 2 mM sodium azide, pH 7.2). This PBS was utilized as the elution buffer as well. The collected Texas-Red® succinimidyl ester-labeled avidin was utilized in the sensing experiments.
The two rectangular capillaries were passivated with a surface coating of bovine serum albumin (BSA). The BSA was then thoroughly rinsed away with phosphate buffered saline (10 mM Na2HPO4, 150 mM NaCl, pH 7.0). Next, a 3 μM solution of ortho-Texas Red® succinimidyl ester conjugated avidin was introduced in PBS into both capillaries. The right capillary additionally contained a 200 μM concentration of biotin (vitamin B7). A line scan across the micrograph is shown on the right. […] It should be noted that avidin is a positively charged protein and the biotin is […] in solution near pH 7.0. Therefore, the local pH near the protein surface is lowered when the small molecule binds.
As a control, the same set of experiments was run as in FIG. 38. However, this time the avidin was conjugated with para-Texas Red® succinimidyl ester (FIG. 39). […]

[2] = literature values; cited from earlier work
[3] = pH modulation assay of avidin and streptavidin on biotin-PE bilayers (turn on / turn off); type: binding; details: 1 μM protein
Text: In addition to being able to detect negatively charged proteins, experiments have also been performed showing that our pH modulation assay can detect positively charged proteins. In this case, the sensor works as a “turn off” rather than as a “turn on” sensor. To investigate this, the binding of avidin, which is a positively charged macromolecule, was studied. The conditions were similar to those described above except where explicitly stated. Under all conditions, a saturation concentration of avidin or streptavidin was employed (1 μM). The bilayers each contained 1 mol % biotin-PE and 0.03 mol % ortho-Texas Red® DHPE.
However, upon adding 20 mol % DOPS (a negatively charged lipid) to the membrane, the assay was rerun at pH 9.25. Under these conditions, it detects avidin in a “turn off” mode and streptavidin in a “turn on” mode.

[4] = pH titration of Texas Red DHPE isomers in supported lipid bilayers (fluorescence); type: physicochemical
Procedure: The peak heights from the ortho-conjugated Texas Red® data in FIG. 5 may be used to obtain a titration curve for this isomer. […] To obtain the y-axis, the peak height at pH 3 was set to 1.0, and all other peak heights are relative to this value.
pH Titration and Buffer Preparation. […] These pH values were chosen to locate the pKA value of ortho-Texas Red® DHPE. The pH could be adjusted to the desired value by the dropwise addition of HCl or NaOH. The pH was measured with a standard glass electrode setup. […] Titration curves for the dye molecules in SLBs were obtained by systematically changing the pH of the bulk solution in a stepwise fashion. Fresh buffer was continuously flowed over the surface until no further changes in fluorescence intensity could be observed. […] Fluorescent micrographs of SLBs were captured with a standard epifluorescence microscope setup (Nikon Eclipse E800).
The fluorescence titration curve of the Texas Red® DHPE dye molecules was monitored in SLBs containing two narrow, parallel lines of bilayers with distinct dye chemistries. […] The second line was identical, but contained para-Texas Red® DHPE instead of the ortho isomer. The surrounding lipid matrix was a 1:1:1 mixture of DOPC, DPPC, and cholesterol.
In this case, however, a saturation concentration of IgG (500 nM) was first introduced into the bulk solution. Moreover, all fluorescence measurements as a function of pH were performed in the presence of 500 nM bulk protein concentration to ensure that the surface remained saturated with protein.
Titration Curves for ortho-Texas Red® DHPE. In a first set of experiments, the pH dependent responses of the ortho- and para-conjugated Texas Red® dyes were investigated in supported POPC bilayers with 0.5 mol % biotin-cap-PE. […] Bulk solutions at a given pH value were continuously flowed into the device until the fluorescence intensity remained constant. Fluorescence images at each pH value were then captured (FIG. 15a).
Titration Curve with a Saturated Protein Layer. […] First, two separated bilayer strips were formed as described above. […] All subsequent measurements were made by tuning the solution pH value, but keeping the bulk IgG concentration constant.

[5] = biotin/streptavidin binding, literature; cited from earlier work
[6] = pH 8.2, POPC, 1 mol % biotin-PE, 0.03 mol % ortho-Texas Red DHPE
[7] = pH 9.25, 20 mol % DOPS added to the membrane

| Molecule | τ0 (fluorescence lifetime) [1] [ns] | φb (quantum yield of photobleaching) [1] | μ (mean number of survived excitation cycles) [1] | further results |
| --- | --- | --- | --- | --- |
| Cc1cc(=O)[nH]c2cc(N)ccc12 [Carbostyril 124] | 5.0 | 1.4 × 10^−3 | 700 | σ01 (λ) ([1]; 335 nm): 6.3 (335 nm) 10^−17 cm^2 |
| Cc1cc(=O)oc2c3c4c(cc12)CCCN4CCC3 [Coumarin 102] | 5.5 | 4.3 × 10^−4 | 2 300 | σ01 (λ) ([1]; 397 nm): 7.0 (397 nm) 10^−17 cm^2 |
| Cc1cc(=O)oc2cc(N)ccc12 [Coumarin 120] | 5.0 | 3.4 × 10^−4 | 3 000 | σ01 (λ) ([1]; 365 nm): 3.9 (365 nm) 10^−17 cm^2 |
| CCNc1cc2oc(=O)cc(C(F)(F)F)c2cc1C [Coumarin 307] | 4.5 | 1.5 × 10^−4 | 6 500 | σ01 (λ) ([1]; 397 nm): 5.4 (397 nm) 10^−17 cm^2 |
| CN(C)c1ccc2c(-c3ccccc3C(=O)[O-])c3ccc(N(C)C)cc3[o+]c2c1 [TMR] | 2.3 | 3.3 × 10^−7 | 3 070 000 | σ01 (λ) ([1]; 515 nm): 13.3 (515 nm) 10^−17 cm^2 |
| O=C(O)CCCC[C@@H]1SC[C@@H]2NC(=O)N[C@@H]21 [biotin] | – | – | – | fluorescence intensity versus capillary without ligand (avidin; 200 μM biotin): approximately a factor of five higher; fluorescence difference between the two capillary tubes (avidin; avidin conjugated with para-Texas Red succinimidyl ester (control), saturation biotin): little if any fluorescence difference |
| Coumarin 39 | 5.6 | 1.2 × 10^−3 | 800 | – |
| Rhodamine 123 | 4.0 | 6.4 × 10^−7 | 1 570 000 | σ01 (λ) ([1]; 515 nm): 12.3 (515 nm) 10^−17 cm^2 |
| avidin: positively charged biotin-binding protein | – | – | – | isoelectric point (pI) [2]: 10.4; detection by the pH modulation assay [3, 6]: turn off mode; detection by the pH modulation assay [3, 7]: turn off |
| biotinylated bovine serum albumin: biotinylated bovine serum albumin (BSA) | – | – | – | fluorescence intensity versus capillary without ligand (avidin; 500 μM biotinylated BSA): approximately a factor of eight higher |
| ortho-sulforhodamine 101-DHPE [ortho-Texas Red® DHPE] | – | – | – | shift of apparent pKA to a more basic value ([4]; 20 mol % DOPS added to the membranes, with respect to FIG. 15b): 0.44 pH units; fluorescence intensity of the band as a function of bulk pH ([4]; POPC bilayers with 0.5 mol % biotin-cap-PE, pH 10.2 to 4.0): showed higher intensity at more acidic pH values; apparent pKA ([4]; SLB containing 0.5 mol % biotin-cap-PE on glass, pH 10.2 to 4.0, ortho/para ratio, FIG. 15b): 7.8±0.1; apparent shift of titration curve midpoint ([4]; saturated anti-biotin IgG layer (500 nM) versus no bound proteins): ~0.35 pH units; pKA of the dye ([4]; supported phospholipid bilayer, pH 3 to 11, FIG. 6): 7.8 |
| streptavidin: negatively charged biotin-binding protein | – | – | – | isoelectric point (pI) [2]: 6.4; Kd [5]: ~1 pM; detection by the pH modulation assay [3, 6]: does not detect; detection by the pH modulation assay [3, 7]: turn on |

From patent US8815778B2, “PH modulation method to detect ligand-receptor binding” (The Texas A&M University System, priority 2008, dated 2014)
